Experimental data reported in patent US20070225351A1, “Methods and compositions for controlling body weight and appetite” (priority 2002, published 2007).
Like-named read-outs stand apart in the source and are kept apart here.

Assays:
[1] = target: norepinephrine transporter (Rattus norvegicus, UniProt Q63380); conditions: from Table 1
Procedure: Reactions were carried out in 50 mM TRIS-HCl (pH 7.4), containing 300 mM NaCl and 5 mM KCl at 0° C. to 4° C. for 4 hours. The reaction was terminated by rapid vacuum filtration onto glass fiber filters. Radioactivity trapped in the filters was determined and compared to control values in order to ascertain the interactions of the test compound with the norepinephrine uptake site.

[2] = 13-week oral toxicity study in rats (body weight, food consumption, clinical pathology, organ weights); assay type: in vivo, rat; conditions: for mean cumulative body weight gain, lower than control: end of 13-week study; for mean body weight, lower than control: end of study
Procedure: One hundred and forty Crl:CD®(SD)IGS BR rats were divided into 7 groups of 20 rats (ten male and ten female). […] Individual body weights were recorded at least weekly, beginning approximately two weeks prior to test article administration (study week-2). Mean body weights and mean body weight changes were calculated for the corresponding intervals. Final body weights (fasted) were recorded prior to the scheduled necropsy.
For toxicology assessment, all animals were observed three times daily for mortality and moribundity. Clinical examinations were performed daily and detailed physical examinations were performed weekly. Following 13 weeks of dose administration, all surviving animals were euthanized.

[3] = Toxicokinetic evaluation in dogs; assay type: in vivo; conditions: beagle, dog, po; for AUC(0-t): read-out: AUC0-24 h
Procedure: Eighteen male and eighteen female beagle dogs were received from Ridglan Farms, Mt. Horeb, Wis. […] Each group consisted of four males and four females. All animals/sex/group were scheduled for the primary necropsy at the end of the 13-week treatment period.
The animals were observed twice daily for mortality and moribundity. Clinical examinations were performed daily at the time of dosing and approximately 1-2 and approximately 3 hours following dose administration. Detailed physical examinations were performed weekly. Clinical pathology evaluations (hematology, serum chemistry and urinalysis) were performed prior to the initiation of dose administration (study week-1) and prior to the scheduled necropsy (study week 13). Individual body weights were recorded weekly, beginning approximately two weeks prior to test article administration (study week-2). Mean body weights and mean body weight changes were calculated for each corresponding interval. Final body weights (fasted) were recorded prior to the scheduled necropsy. Blood samples for toxicokinetic evaluation were collected from all dogs on study days 0 and 88 at 0, 1, 2, 4, 8 and 24 hours after dose administration. […] Gross lesions were also examined from the 2.0 and 6.0 mg/kg/day groups.

[4] = female, blood, 6 mg/kg/day, female dogs, 6 mg/kg/day oral, Day 0
[5] = female, blood, 6 mg/kg/day, female dogs, 6 mg/kg/day oral, Day 88
[6] = female, blood, 20 mg/kg/day, female dogs, 20 mg/kg/day oral, Day 0
[7] = female, blood, 20 mg/kg/day, female dogs, 20 mg/kg/day oral, Day 88
[8] = female, in vivo, 2 mg/kg/day, female dogs, 2 mg/kg/day oral, Day 0
[9] = female, in vivo, 2 mg/kg/day, female dogs, 2 mg/kg/day oral, Day 88
[10] = male, blood, 2 mg/kg/day, male dogs, 2 mg/kg/day oral, Day 0
[11] = male, blood, 2 mg/kg/day, male dogs, 2 mg/kg/day oral, Day 88
[12] = male, in vivo, 6 mg/kg/day, male dogs, 6 mg/kg/day oral, Day 0
[13] = male, in vivo, 6 mg/kg/day, male dogs, 6 mg/kg/day oral, Day 88
[14] = male, in vivo, 20 mg/kg/day, male dogs, 20 mg/kg/day oral, Day 0
[15] = male, in vivo, 20 mg/kg/day, male dogs, 20 mg/kg/day oral, Day 88

Sequence of norepinephrine transporter (Q63380 1-617): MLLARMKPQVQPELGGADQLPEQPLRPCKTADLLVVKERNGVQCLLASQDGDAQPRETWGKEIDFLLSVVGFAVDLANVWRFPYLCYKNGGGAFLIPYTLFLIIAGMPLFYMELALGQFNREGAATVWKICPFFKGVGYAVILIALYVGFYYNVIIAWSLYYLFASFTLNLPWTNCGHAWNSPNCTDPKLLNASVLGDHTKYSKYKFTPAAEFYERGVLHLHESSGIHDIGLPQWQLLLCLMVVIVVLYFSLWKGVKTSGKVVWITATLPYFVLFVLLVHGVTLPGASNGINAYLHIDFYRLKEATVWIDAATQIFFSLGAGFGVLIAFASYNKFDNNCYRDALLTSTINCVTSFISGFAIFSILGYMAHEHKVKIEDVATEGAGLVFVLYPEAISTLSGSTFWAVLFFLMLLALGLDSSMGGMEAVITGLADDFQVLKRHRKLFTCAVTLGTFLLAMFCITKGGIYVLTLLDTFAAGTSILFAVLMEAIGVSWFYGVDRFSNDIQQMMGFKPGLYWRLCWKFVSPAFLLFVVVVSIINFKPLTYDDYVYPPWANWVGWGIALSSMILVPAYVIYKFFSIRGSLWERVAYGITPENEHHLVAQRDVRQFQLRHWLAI

## Cl.Clc1ccc([C@@]23CNC[C@@H]2C3)cc1Cl (single isomer, unassigned) [(+)-1-(3,4-dichlorophenyl)-3-azabicyclo[3.1.0]hexane hydrochloride]
[1]
  affinity for the norepinephrine uptake site compared with the (±) compound: significantly greater affinity
[2]; both sexes, Crl:CD(SD)IGS BR, rat, in vivo, rats, oral administration for 13 weeks, read-out: no-observed-adverse-effect level (NOAEL)
  NOAEL at 13 weeks: 10 mg/kg/day
[2]; female rats, 25 mg/kg/day oral
  mean cumulative body weight gain, lower than control: 13%
[2]; female rats, 25 mg/kg/day, first week
  food consumption, lower than control: 16%
[2]; female rats, 60 mg/kg/day oral
  mean cumulative body weight gain, lower than control: 13%
  mean body weight, lower than control: 9%
[2]; female rats, 60 mg/kg/day, first week
  food consumption, lower than control: 32%
[2]; female rats, 60 mg/kg/day, second week
  food consumption, lower than control: 11%
[2]; female rats, 10 MG/KG/DAY group, WEEK −2 TO −1 (before dosing)
  weekly food consumption, MEAN: 18. C/ANIMAL/DAY
[2]; female rats, 10 MG/KG/DAY, WEEK 0 TO 1
  weekly food consumption, MEAN: 17. C/ANIMAL/DAY
[2]; female rats, 10 MG/KG/DAY, WEEK 1 TO 2
  weekly food consumption, MEAN: 19. C/ANIMAL/DAY
[2]; female rats, 10 MG/KG/DAY, WEEK 2 TO 3
  weekly food consumption, MEAN: 20. C/ANIMAL/DAY
[2]; female rats, 10 MG/KG/DAY, WEEK 3 TO 4
  weekly food consumption, MEAN: 20. C/ANIMAL/DAY
[2]; female rats, 10 MG/KG/DAY, WEEK 4 TO 5
  weekly food consumption, MEAN: 19. C/ANIMAL/DAY
[2]; female rats, 10 MG/KG/DAY, WEEK 5 TO 6
  weekly food consumption, MEAN: 18. C/ANIMAL/DAY
[2]; female rats, 10 MG/KG/DAY, WEEK 6 TO 7
  weekly food consumption, MEAN: 18. C/ANIMAL/DAY
[2]; female rats, 10 MG/KG/DAY, WEEK 7 TO 8
  weekly food consumption, MEAN: 18. C/ANIMAL/DAY
[2]; female rats, 10 MG/KG/DAY, WEEK 8 TO 9
  weekly food consumption, MEAN: 18. C/ANIMAL/DAY
[2]; female rats, 10 MG/KG/DAY, WEEK 9 TO 10
  weekly food consumption, MEAN: 18. C/ANIMAL/DAY
[2]; female rats, 10 MG/KG/DAY, WEEK 10 TO 11
  weekly food consumption, MEAN: 18. C/ANIMAL/DAY
[2]; female rats, 10 MG/KG/DAY, WEEK 11 TO 12
  weekly food consumption, MEAN: 18. C/ANIMAL/DAY
[2]; female rats, 10 MG/KG/DAY, WEEK 12 TO 13
  weekly food consumption, MEAN: 17. C/ANIMAL/DAY
[2]; female rats, 25 MG/KG/DAY group, WEEK −2 TO −1 (before dosing)
  weekly food consumption, MEAN: 17. C/ANIMAL/DAY
[2]; female rats, 25 MG/KG/DAY, WEEK 0 TO 1
  weekly food consumption, MEAN: 16.** C/ANIMAL/DAY
[2]; female rats, 25 MG/KG/DAY, WEEK 1 TO 2
  weekly food consumption, MEAN: 20. C/ANIMAL/DAY
[2]; female rats, 25 MG/KG/DAY, WEEK 2 TO 3
  weekly food consumption, MEAN: 10. C/ANIMAL/DAY
[2]; female rats, 25 MG/KG/DAY, WEEK 3 TO 4
  weekly food consumption, MEAN: 20. C/ANIMAL/DAY
[2]; female rats, 25 MG/KG/DAY, WEEK 4 TO 5
  weekly food consumption, MEAN: 18. C/ANIMAL/DAY
[2]; female rats, 25 MG/KG/DAY, WEEK 5 TO 6
  weekly food consumption, MEAN: 19. C/ANIMAL/DAY
[2]; female rats, 25 MG/KG/DAY, WEEK 6 TO 7
  weekly food consumption, MEAN: 18. C/ANIMAL/DAY
[2]; female rats, 25 MG/KG/DAY, WEEK 7 TO 8
  weekly food consumption, MEAN: 17. C/ANIMAL/DAY
[2]; female rats, 25 MG/KG/DAY, WEEK 8 TO 9
  weekly food consumption, MEAN: 19. C/ANIMAL/DAY
[2]; female rats, 25 MG/KG/DAY, WEEK 9 TO 10
  weekly food consumption, MEAN: 18. C/ANIMAL/DAY
[2]; female rats, 25 MG/KG/DAY, WEEK 10 TO 11
  weekly food consumption, MEAN: 18. C/ANIMAL/DAY
[2]; female rats, 25 MG/KG/DAY, WEEK 11 TO 12
  weekly food consumption, MEAN: 18. C/ANIMAL/DAY
[2]; female rats, 25 MG/KG/DAY, WEEK 12 TO 13
  weekly food consumption, MEAN: 17. C/ANIMAL/DAY
[2]; female rats, 60 MG/KG/DAY group, WEEK −2 TO −1 (before dosing)
  weekly food consumption, MEAN: 17. C/ANIMAL/DAY
[2]; female rats, 60 MG/KG/DAY, WEEK 0 TO 1
  weekly food consumption, MEAN: 13.** C/ANIMAL/DAY
[2]; female rats, 60 MG/KG/DAY, WEEK 1 TO 2
  weekly food consumption, MEAN: 17.* C/ANIMAL/DAY
[2]; female rats, 60 MG/KG/DAY, WEEK 2 TO 3
  weekly food consumption, MEAN: 18. C/ANIMAL/DAY
[2]; female rats, 60 MG/KG/DAY, WEEK 3 TO 4
  weekly food consumption, MEAN: 16. C/ANIMAL/DAY
[2]; female rats, 60 MG/KG/DAY, WEEK 4 TO 5
  weekly food consumption, MEAN: 17. C/ANIMAL/DAY
[2]; female rats, 60 MG/KG/DAY, WEEK 5 TO 6
  weekly food consumption, MEAN: 18. C/ANIMAL/DAY
[2]; female rats, 60 MG/KG/DAY, WEEK 6 TO 7
  weekly food consumption, MEAN: 18. C/ANIMAL/DAY
[2]; female rats, 60 MG/KG/DAY, WEEK 7 TO 8
  weekly food consumption, MEAN: 18. C/ANIMAL/DAY
[2]; female rats, 60 MG/KG/DAY, WEEK 8 TO 9
  weekly food consumption, MEAN: 18. C/ANIMAL/DAY
[2]; female rats, 60 MG/KG/DAY, WEEK 9 TO 10
  weekly food consumption, MEAN: 17. C/ANIMAL/DAY
[2]; female rats, 60 MG/KG/DAY, WEEK 10 TO 11
  weekly food consumption, MEAN: 17. C/ANIMAL/DAY
[2]; female rats, 60 MG/KG/DAY, WEEK 11 TO 12
  weekly food consumption, MEAN: 18. C/ANIMAL/DAY
[2]; female rats, 60 MG/KG/DAY, WEEK 12 TO 13
  weekly food consumption, MEAN: 17. C/ANIMAL/DAY
[2]; male rats, 25 mg/kg/day oral
  mean cumulative body weight gain, lower than control: 16%
  mean body weight, lower than control: 10%
[2]; male rats, 25 mg/kg/day, first week
  food consumption, lower than control: 8%
[2]; male rats, 60 mg/kg/day oral
  mean cumulative body weight gain, lower than control: 30%
  mean body weight, lower than control: 18%
[2]; male rats, 60 mg/kg/day, first week
  food consumption, lower than control: 19%
[2]; male rats, 60 mg/kg/day, second week
  food consumption, lower than control: 4%
[2]; rat, in vivo, 60 mg/kg/day
  alanine aminotransferase (ALT) level: higher
  alkaline phosphatase (ALP), higher: 35-55%
  bilirubin, higher: 35-55%

## Clc1ccc([C@]23CNCC2C3)cc1Cl (single isomer, unassigned; (+)) [(+)-1-(3,4-dichlorophenyl)-3-azabicyclo[3.1.0]hexane]
[3]; female, blood, 2 mg/kg/day, female dogs, 2 mg/kg/day oral, Day 0
  Tmax: 1 h
[3]; female, blood, 2 mg/kg/day, female dogs, 2 mg/kg/day oral, Day 88
  Tmax: 1 h
[3]; [4]
  Cmax: 5120 ng/mL
  Tmax: 1 h
  AUC(0-t): 13600 ng·h/mL
[3]; [5]
  Cmax: 4850 ng/mL
  Tmax: 1 h
[3]; [6]
  Cmax: 9280 ng/mL
  Tmax: 2 h
  AUC(0-t): 63600 ng·h/mL
[3]; [7]
  Cmax: 8430 ng/mL
  Tmax: 1 h
  AUC(0-t): 29600 ng·h/mL
[3]; [8]
  Cmax: 635 ng/mL
  AUC(0-t): 1470 ng·h/mL
[3]; [9]
  Cmax: 663 ng/mL
  AUC(0-t): 2150 ng·h/mL
[3]; female, in vivo, 6 mg/kg/day, female dogs, 6 mg/kg/day oral, Day 88
  AUC(0-t): 15900 ng·h/mL
[3]; [10]
  Cmax: 507 ng/mL
  Tmax: 1 h
  AUC(0-t): 1570 ng·h/mL
[3]; [11]
  Cmax: 753 ng/mL
  Tmax: 1 h
  AUC(0-t): 2280 ng·h/mL
[3]; [12]
  Cmax: 4640 ng/mL
  Tmax: 1 h
  AUC(0-t): 12800 ng·h/mL
[3]; [13]
  Cmax: 4140 ng/mL
  Tmax: 1 h
  AUC(0-t): 13100 ng·h/mL
[3]; [14]
  Cmax: 11400 ng/mL
  Tmax: 1 h
  AUC(0-t): 47800 ng·h/mL
[3]; [15]
  Cmax: 7230 ng/mL
  Tmax: 1 h
  AUC(0-t): 44000 ng·h/mL
